The values below come from a melting point compilation (Tetko et al.; mined from patent text by program, amines drawn as free bases though some values may be those of a salt).

In general, melting point refers to the temperature, or range, at which the solid turns liquid.

Structures are written as SMILES. Starred links: 1 amine or outer side, 2 acyl side, 3 side chain; linkers in the order of their positions; H or OH if unused. Non-standard residues stand in square brackets, D forms with d. Residues, ends and D or L forms follow the SMILES beside them. *: point of attachment. γGlu = O=C(O)[CH](CCC(=O)[*:2])N[*:1]; Lauroyl = CCCCCCCCCCCC(=O)*

In turn, `CN(C)C(=O)Cc1nc(-c2ccccc2)nc2c1c1ccc(Cl)cc1n2C` displayed a melting point of 185 to 187 °C.

Take `C=CCNc1nc(NCCN)nc2ccc([N+](=O)[O-])cc12`: the melting point was 126 to 128 °C.

In the case of `CCc1[nH]n(C2CCCC2)c2nc(-c3ccc4nccn4c3)nc(=O)c1-2`, the melting point is above 300 °C.

The compound `CCN(CC)CC1CCCCN1CC(=O)N1c2cc(Cl)ccc2C(=O)Nc2cccnc21` (configuration not stated) came in with a melting point of 168 to 169 °C.

In turn, `COc1ccc(-c2cc(=O)c(C(=O)O)cn2C2CC2)cc1` had a melting point of 159 to 161 °C.

The compound `COc1cc(C)c2c(c1)c1c(n2Cc2ccc(Cl)cc2)C(CC(=O)O)CCC1` (configuration not stated) gave a melting point of 188 °C.

For `CCCCN(CCCCCCCCSc1nc(-c2ccccc2)c(-c2ccccc2)[nH]1)C(=O)Nc1ccc(F)cc1F`, the melting point lay in the range of 114 to 115 °C.

For the compound `CCCCOc1nc(N)c2[nH]c(=O)n(CCCCN(CCCN3CCCC3=O)Cc3cccc(CC(=O)OC)c3)c2n1`, the melting point is 115 to 116 °C.

As to `CCCNc1nc(C#N)c(C#N)nc1-c1cccc(Cl)c1`, the melting point lay in the range of 120 to 121 °C.

Take `CN1CC[C@@H](c2c(O)cc(O)c3c(=O)cc(-c4ccccc4Br)oc23)[C@@H]1CO`: the melting point was in the range of 235 to 237 °C.

Consider `C[C@@H]1CC[C@H](C(=O)O)Cc2onc(-c3ccc(Cl)cc3)c21` (relative stereo), for which the melting point lay in the range of 154 to 155 °C.

The compound `CCOC(=O)c1ccc(N)cc1O` registered a melting point of 113 to 115 °C.

`COC(=O)C1CC2CCC1N(C(=O)OC(C)(C)C)C2` (configuration not stated): the melting point was in the range of 44 to 45 °C.

In turn, `O=C(CSCCCOc1ccccc1)NNC(=O)c1ccc(O)cc1` displayed a melting point of 146 to 151 °C.

Consider `Cc1ccc(-c2nc(COc3cccc(OCc4cccc(C)c4C(=O)O)c3)co2)s1`, for which the melting point was 129 to 130 °C.

Compound `Cc1ccc(-n2ncc(C(=O)Nc3ccc(N4CCN(C5CCOCC5)CC4)c(C#N)c3)c2C)cc1` displayed a melting point of 258 °C.

Take `COc1ccc(C2COc3ccc(-c4nnc(C)o4)cc32)cc1` (configuration not stated): the melting point fell in the range of 117 to 118 °C.

Compound `CO/N=C(/C(N)=O)c1ccccc1COc1cc(C)ccc1C` yielded a melting point of 122 °C.

Compound `CC(C)(C)c1cc(/C=C/c2nnc(S(C)(=O)=O)s2)cc(C(C)(C)C)c1O` gave a melting point of 235 °C.

With `CC(=O)N1CCN2C(=O)N(c3cc(Cl)cc(Cl)c3)C(=O)C2(Cc2ccc(Br)cc2)C1` (configuration not stated), the melting point was 89.6 °C.

Regarding `O=C1C=C(NC(=O)C(=O)c2cn(Cc3ccc(Cl)cc3)c3cccc(NC(=O)c4ccc(Cl)cc4)c23)CO1`, the melting point was above 300 °C.

Consider `C[C@](Cc1c[nH]c2ccccc12)(NC(=O)O)C(=O)NCCC1CCCCC1`, for which the melting point is 79 to 81 °C.

`N#Cc1cc([N+](=O)[O-])ccc1N1CCC(=O)CC1` yielded a melting point of 109 °C.

The compound `CC(Cc1c[nH]c2ccccc12)(NC(=O)OC1C2CC3CC(C2)CC1C3)C(=O)NCCC1=CCCCC1` (configuration not stated) came in with a melting point of 77 to 79 °C.

In the case of `CN1CCN(c2ccc(Nc3cc(-c4cccc(-n5ncc6cc(C(C)(C)C)cc(F)c6c5=O)c4CO)nn(C)c3=O)nc2)CC1`, the melting point lay within 260 to 264 °C.

`C(=C\c1nc(COc2ccc(CCCCn3cncn3)cc2)co1)/c1ccccc1` returned a melting point of 94 to 95 °C.

With `CCc1nc2cnc3ccccc3c2n1CCCCNS(C)(=O)=O`, the melting point lay in the range of 166 to 168 °C.

Turning to `CCOC(=O)Cn1c(Br)c(Br)c(C#N)c1Br`, the melting point lay within 140 to 143 °C.

Turning to `CC(=O)OC1CCC2(C)C(CCC3C4CC(C)=C(C(C)=O)C4(C)CC(=O)C32)C1` (configuration not stated), the melting point was 200 to 208 °C.

Take `COc1ccc(-c2nc(CCCCCC(C)(C)c3nnn[nH]3)oc2-c2ccc(OC)cc2)cc1`: the melting point came out at 82 °C.

With `CCCCCCCCCCCC(=O)NC(C)C(=O)NC(CCC(=O)NC(CCCCN)C(=O)O)C(=O)O` (configuration not stated) (Lauroyl-Ala-[γGlu]-Lys-OH; configuration not given here), the melting point was 180 to 186 °C.

The compound `CCOC(=O)C(=C1CCCN1C)c1ccc(F)cc1` registered a melting point of 80 °C.
